Assay results taken from US20030129262A1, “Methionine restriction for cancer therapy” (priority 2001, published 2003).
Structures can show the parent of a compound that is named as a salt. Starred links: 1 amine or outer side, 2 acyl side, 3 side chain; linkers in the order of their positions; H or OH if unused. Positions of bridges follow the written chain, without caps; N, C: chain ends. Non-standard residues stand in square brackets, D forms with d. Residues, ends and D or L forms follow the SMILES beside them. Chains are numbered I, II in the order given. Actinocin(9to1) = Cc1c2oc3c(C)ccc(C(=O)[*:1])c3nc-2c(C(=O)[*:2])c(N)c1=O; NMeV = CN[C@H](C(=O)O)C(C)C; Sar = CNCC(=O)O

What was measured:
[1] = tested on: Yoshida sarcoma; conditions: coadministered with methionine depleted diet, 1.0 mg/kg/day on days 2, 4, 6; cited from earlier work
[2] = tested on: GBM at recurrence; conditions: single agent, cited from earlier work
[3] = cited from earlier work
[4] = tested on: Hodgkin's Disease and testicular tumors; conditions: in vivo; cited from earlier work
[5] = tested on: Hela cells; experiment: Western blot of caspases, BID, Bcl-2, Hela
[6] = tested on: PC-3 cells; experiment: Western blot of caspases, BID, Bcl-2, PC-3; format: cell-based, Human
[7] = tested on: human breast carcinoma (MX-t) cell line; conditions: combined with methionine depletion; cited from earlier work
[8] = tested on: thymidylate synthase; experiment: Western blot of TS protein in PC3 cells; format: cell-based, Human
Method: (§1) Human prostate cancer PC3 cells (American Type Culture Collection, Rockville, Md.) were maintained in RPMI-1640 (Life Technologies, Inc., Gaithersburg, Md.) supplemented with 10% FBS (HyClone Laboratories, Logan, Utah) at 37° C. in 5% CO2. Methionine restriction experiments were performed in methionine-free RPMI-1640 (Life Technologies, Inc.) supplemented with 10% FBS and 100 μM Homocysteine (Sigma, St. Louis). Folate restriction experiments were performed in folate-free RPMI-1640 medium (Life Technologies, Inc.) supplemented with 10% FBS. Primary culture prostate epithelial cells (PrEC) were purchased from BioWhittaker, Inc. and Clonetics Products (Walkersville, Md.). PrEC was maintained in the prostate epithelial basal medium and methionine restriction was performed in prostate epithelial cell labeling medium without methionine supplemented with 100 μM homocysteine, which were obtained from the company.
Aliquots of samples with 50 μg of protein, determined by the Bradford assay (BioRad, Hercules, Calif.), were mixed with loading buffer (final concentrations of 62.5 mM Tris-HCl (pH 6.8), 2.3% SDS, 100 mM dithiothreitol, and 0.005% bromophenol blue), boiled, fractionated in a 10% SDS-PAGE, and transferred onto a 0.45-μm nitrocellulose membrane by electroblotting (BioRad). […]

[9] = tested on: PC-3 cells; experiment: HPLC analysis of nucleotide levels; format: cell-based, Human; conditions: positive control for TS inhibition
Method: Cells were washed with phosphate buffered saline (PBS), trypsinized, washed again with PBS, counted, and pelleted. 5×10^5 cells from each sample were mixed with 10 μL 0.6 M trichloroacetic acid. The lysate was incubated at 4° C. for 30 minutes. After centrifugation, the acidic supernatant was transferred to a microcentrifuge tube. An equal volume of ice cold 80% 1,1,2-trichlorotrifluoroethane and 20% tri-n-octylamine was added to the lysate. The mixture was vortexed for 15 seconds and then centrifuged at 14000 g at 4° C. for 5 minutes. The aqueous supernatant was removed and centrifuged at 14000 g at 4° C. for 5 minutes. Samples were stored at −70° C. until use.used.
Clromatographic analyses were performed with a Waters 625 LC System (Waters Corporation, Milford, Mass., USA) consisting of a Waters 625 Fluid Handling Unit with a Rheodyne 9125-080 Manual Injector and 20 μL sample loop, 625E Powerline Controller, and 484 Tunable UV Detector. […]
A series of standards containing varying amounts of dUMP and dTTP ranging from […] was analyzed using the above methodology. The different quantities and their correlating absorption areas existed in a linear relationship. […] This linear equation was used to calculate the quantity of dUMP or dTTP represented by the absorption peaks in the chromatograms generated from our experimental samples.

[10] = tested on: thymidylate synthase; experiment: Thymidylate synthase (TS) assay in PC-3 cells; format: cell-based, Human; conditions: PC3 cells, within 8 hours
Method: as §1
TS assay was performed as previously described (24). Briefly, 25 μl of cell extract containing 50 μg protein, 5 μl 6.5 mM 5,10-CH2-THF, and 10 μl of Tris.HCl buffer were combined at room temperature. […] After centrifugation, 150 μl of the supernatant were counted by liquid scintillation. […]

[11] = tested on: multiple myeloma; conditions: oral administration; cited from earlier work

## COc1cccc2c1C(=O)c1c(O)c3c(c(O)c1C2=O)C[C@@](O)(C(=O)CO)C[C@@H]3O[C@H]1C[C@H](N)[C@H](O)[C@H](C)O1 [Doxorubicin, 5,12-Naphthacenedione, (8s-cis)-10-[(3-amino-2,3,6-trideoxy-a-L-lyxo-hexopyranosyl)oxy]-7,8,9,10-tetrahydro-6,8,11-trihydroxy-8-(hydroxyacetyl)-1-methoxy-hydrochloride]
[1]
  effectiveness (reduced tumor weight, increased survivability): enhanced effectiveness

## O=NN(CCCl)C(=O)NCCCl [Carmustine, 1,3bis (2-chloroethyl)-1-nitrosourea]
[2]; Berger et al., 1996
  Response rate (responders plus stable disease): 29%
[2]
  median time to progression: 22 weeks

## O=NN(CCCl)C(=O)NC1CCCCC1 [Lomustine, 1-(2-chloro-ethyl)-3-cyclohexyl-1 nitrosourea]
[3]; oral, 30 mg/m^2 to 100 mg/m^2, within 24 hours
  fraction of radioactivity excreted as degradation products: about half

## Bleomycin
[4]
  time until improvement is noted: ≤ 2 weeks

## CC(=O)O[C@H]1C(=O)[C@@]2(C)[C@H]([C@H](OC(=O)c3ccccc3)[C@]3(O)C[C@H](OC(=O)[C@H](O)[C@@H](NC(=O)c4ccccc4)c4ccccc4)C(C)=C1C3(C)C)[C@]1(OC(C)=O)CO[C@@H]1C[C@@H]2O [taxol, Taxol]
[5]
  Bcl-2 phosphorylation (upward shift on western blot): phosphorylated
[6]
  Bcl-2 phosphorylation (upward shift on western blot): phosphorylated

## N.N.[Cl][Pt][Cl] [cisplatin, Cisplatin]
[7]
  Treated tumor growth, % of growth in control mice tumors: 32%

## CN[C@@H]1C[C@H]2O[C@@](C)([C@@H]1OC)n1c3ccccc3c3c4c(c5c6ccccc6n2c5c31)C(=O)NC4 [staurosporine]
[5]
  active (cleaved) form of caspases by western blot: detectable

## O=c1[nH]cc(F)c(=O)[nH]1 [5-FU, 5-fluorouracil]
[8]; concurrent methionine restriction
  TS protein accumulation in response to 5-FU: largely abrogated
[8]; western blot
  TS protein level: dramatically increased
[9]
  dUMP/dTTP ratio: dramatic increase
[10]
  inhibition of TS activity: 95%

## N[C@@H](Cc1ccc(N(CCCl)CCCl)cc1)C(=O)O [Melphalan, 4-[bis(2-chloroethyl)amino]-L-phenylalanine]
[11]
  fraction of patients with favorable response: one third to one half

## Cc1c2oc3c(C)ccc(C(=O)N[C@@H]4C(=O)N[C@H](C(C)C)C(=O)N5CCC[C@H]5C(=O)N(C)CC(=O)N(C)[C@@H](C(C)C)C(=O)O[C@@H]4C)c3nc-2c(C(=O)N[C@@H]2C(=O)N[C@H](C(C)C)C(=O)N3CCC[C@H]3C(=O)N(C)CC(=O)N(C)[C@@H](C(C)C)C(=O)O[C@@H]2C)c(N)c1=O [Actinomycin D] (I: T[dV]P[Sar][NMeV] / II: T[dV]P[Sar][NMeV]; ester I:1-I:C, II:1-II:C; linker I:N-II:N via Actinocin(9to1))
[3]; in vivo
  fraction of the dose excreted intact into the bile: Half
